Results from US20260263495A1, “METHODS AND BIOAVAILABLE HIGHLY PERMEABLE COMPOUNDS FOR DISEASES TREATMENT” (priority 2024, published 2026).

Experiments:
[1] = API concentration in the blood plasma of cattle after oral administration; format: in vivo; conditions: 600 μg/kg (per pure IVM)
Procedure: Free ivermectin substance was processed in planetary mill, the parameters were as follows: weight of the material—5 g, grinding jar volume—200 mL, grinding media—steel balls (diameter 8 mm, 90.0 g load), processing time—20 minutes. Compound of Formula I was treated according to Example 1 No21.
Cattle were divided into 2 groups of 1 animals each. Free Ivermectin (IVM) and compound of Formula I were orally administered to starving cattle. Blood samples were withdrawn from the jugular vein at appropriate time intervals after administration (0, 4, 20 h).
Ivermectin concentrations in blood plasma were analyzed according to the method Na-Bangchang, K., High-performance liquid chromatographic method for the determination of ivermectin in plasma, Southeast Asian J Trop Med Public Health, 2006 September, 37(5):848-58, PMID: 17333725.
The internal standard (moxidectin) was separated from ivermectin on a Hypersil Gold C18 column(150×4.6 mm, […]), with retention time of 3.7 and 7.0 minutes, respectively. Fluorescence detection was set at an excitation and emission wavelength of 365 and 475 nm, respectively. The mobile phase consisted of acetonitrile, methanol and distilled water (50:45:5,v/v/v), running through the column at a flow rate of 1.5 ml/minute. The chromatographic analysis was operated at 25° C. Sample preparation (100 μl plasma) was done by a single step protein precipitation with acetonitrile, followed by derivatization with 100 μl of N-methylimidazolesolution in acetonitrile (1:1, v/v) and 150 μl of trifluoroacetic anhydrous solution in acetonitrile(1:2, v/v). Calibration curve over the concentration range of 20-8,000 ng/ml plasma was linear with correlation coefficient better than 0.995.
All the blood samples were centrifuged at 3000 rpm for 15 min to obtain […]. Cattle plasma samples (100 μL each) were placed in 1.5 mL Eppendorf tubes, and then the samples underwent protein precipitation. The samples were vortexed for 1 min and centrifuged at 13,400 rpm for 10 min 20 μL of the supernatant was injected into the HPLC.

SARS-CoV-2 = conditions: reference level compared with the lung Cmax; read-out: EC 50 for SARS-CoV-2; cited from earlier work
[2] = system: monolayer of Caco-2 cells; assay: Permeability of solid dispersion aqueous solution on the Caco-2 cell line; conditions: Caco-2 monolayer, 3 μM (per pure IVM) in HBSS on top, compound of Formula I = Example 1 No 2

With `CC[C@H](C)[C@H]1O[C@]2(CC[C@@H]1C)C[C@@H]1C[C@@H](C/C=C(\C)[C@@H](O[C@H]3C[C@H](OC)[C@@H](O[C@H]4C[C@H](OC)[C@@H](O)[C@H](C)O4)[C@H](C)O3)[C@@H](C)/C=C/C=C3\CO[C@@H]4[C@H](O)C(C)=C[C@@H](C(=O)O1)[C@]34O)O2` [IVM, Ivermectin] the Cmax [1] was 350 ± 50 nM, the “C1, 0 h, ivermectin concentration in plasma” value ([1]; 0 h, compound of Formula I treated according to Example 1 No21) was 0 ± 0.15 ng/mL and the “C2, 4 h, ivermectin concentration in plasma” value ([1]; 4 h, compound of Formula I treated according to Example 1 No21) was 307.3 ± 46.1 ng/mL. The “C3, 20 h, ivermectin concentration in plasma” value ([1]; 20 h, compound of Formula I treated according to Example 1 No21) was 104.4 ± 15.6 ng/mL, the “Cmax in lung calculated by plasma-lung ratio 2.67” value ([1]; calculated from plasma Cmax) was 930 ± 140 nM and the EC50 (SARS-CoV-2) was 2400 nM. For the same compound, the “Concentrartion of IVM at the bottom of the well” value (“Concentrartion of IVM” for short) ([2]; 20 min) was 50 ng/mL, the “Concentrartion of IVM” value ([2]; 40 min) was 90 ng/mL and the “Concentrartion of IVM” value ([2]; 60 min) was 150 ng/mL. For the same compound, the “Concentrartion of IVM” value ([2]; 80 min) was 190 ng/mL, the “Concentrartion of IVM” value ([2]; 100 min) was 210 ng/mL and the “Concentrartion of IVM” value ([2]; 120 min) was 250 ng/mL.
